Laboratory results reported in ChEMBL document CHEMBL5291721, “A preclinical secondary pharmacology resource illuminates target-adverse drug reaction associations of marketed drugs” (Nat Commun, 2023).

How the values were obtained:
[1] = molecular target: T1, Muscarinic acetylcholine receptor M1 (Homo sapiens, UniProt P11229); assay type: functional, cell-based
T1 sequence (P11229 whole entry): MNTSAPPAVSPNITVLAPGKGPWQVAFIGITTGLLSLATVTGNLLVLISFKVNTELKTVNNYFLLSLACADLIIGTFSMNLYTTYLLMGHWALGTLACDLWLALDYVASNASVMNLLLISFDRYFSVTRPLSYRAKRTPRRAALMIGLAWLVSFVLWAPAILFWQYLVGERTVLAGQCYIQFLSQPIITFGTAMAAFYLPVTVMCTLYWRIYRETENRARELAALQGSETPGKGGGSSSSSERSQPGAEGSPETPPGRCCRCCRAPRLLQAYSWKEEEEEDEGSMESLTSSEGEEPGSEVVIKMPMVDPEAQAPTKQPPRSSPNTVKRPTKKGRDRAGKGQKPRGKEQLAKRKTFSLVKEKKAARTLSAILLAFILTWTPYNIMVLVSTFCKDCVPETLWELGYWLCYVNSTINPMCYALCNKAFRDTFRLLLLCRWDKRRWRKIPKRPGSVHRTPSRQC

Adenosine receptor A1 = molecular target: T2, Adenosine receptor A1 (Homo sapiens, UniProt P30542)
T2 sequence (P30542 whole entry): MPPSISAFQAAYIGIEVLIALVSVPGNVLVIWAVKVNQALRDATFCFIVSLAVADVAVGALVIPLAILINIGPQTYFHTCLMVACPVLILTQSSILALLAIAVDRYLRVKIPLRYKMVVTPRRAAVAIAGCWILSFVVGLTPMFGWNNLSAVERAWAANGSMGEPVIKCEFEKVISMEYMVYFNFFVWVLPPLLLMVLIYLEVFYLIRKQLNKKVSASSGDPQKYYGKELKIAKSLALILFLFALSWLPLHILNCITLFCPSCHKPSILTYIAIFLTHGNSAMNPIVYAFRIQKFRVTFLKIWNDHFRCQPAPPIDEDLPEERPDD

[2] = molecular target: T3, Alpha-1A adrenergic receptor (Homo sapiens, UniProt P35348); assay type: functional, cell-based
T3 sequence (P35348 whole entry): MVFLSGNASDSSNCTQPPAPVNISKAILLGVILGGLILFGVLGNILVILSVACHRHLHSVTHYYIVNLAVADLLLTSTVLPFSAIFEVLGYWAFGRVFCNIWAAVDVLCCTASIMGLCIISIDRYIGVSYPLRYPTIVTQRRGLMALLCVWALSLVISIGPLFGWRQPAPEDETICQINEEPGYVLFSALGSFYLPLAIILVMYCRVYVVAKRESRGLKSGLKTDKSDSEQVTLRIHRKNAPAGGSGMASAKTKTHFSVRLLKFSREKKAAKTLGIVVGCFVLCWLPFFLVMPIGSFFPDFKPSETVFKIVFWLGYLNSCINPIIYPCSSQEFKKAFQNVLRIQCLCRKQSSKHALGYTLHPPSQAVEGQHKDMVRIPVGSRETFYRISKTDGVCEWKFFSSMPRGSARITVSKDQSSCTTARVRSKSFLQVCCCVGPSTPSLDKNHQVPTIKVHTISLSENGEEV

Vasopressin V1a receptor = Vasopressin V1a receptor (Homo sapiens, UniProt P37288)
[3] = molecular target: Voltage-dependent L-type calcium channel subunit alpha-1C (Rattus norvegicus, UniProt P22002); assay type: functional
[4] = molecular target: T4, Muscarinic acetylcholine receptor M2 (Homo sapiens, UniProt P08172); assay type: functional, cell-based
T4 sequence (P08172 whole entry): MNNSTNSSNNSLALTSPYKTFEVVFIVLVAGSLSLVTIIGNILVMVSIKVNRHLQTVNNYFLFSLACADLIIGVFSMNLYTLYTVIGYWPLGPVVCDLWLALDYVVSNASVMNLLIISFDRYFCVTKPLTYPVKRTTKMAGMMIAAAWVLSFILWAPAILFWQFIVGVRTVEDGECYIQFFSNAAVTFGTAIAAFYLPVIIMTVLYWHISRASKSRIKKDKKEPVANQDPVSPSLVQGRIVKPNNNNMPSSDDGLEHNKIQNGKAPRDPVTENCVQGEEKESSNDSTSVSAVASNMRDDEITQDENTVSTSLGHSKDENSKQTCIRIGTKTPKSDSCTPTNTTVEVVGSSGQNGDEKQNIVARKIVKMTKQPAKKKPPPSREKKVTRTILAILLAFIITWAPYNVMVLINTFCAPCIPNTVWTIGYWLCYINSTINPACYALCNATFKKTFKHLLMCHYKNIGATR

Endothelin-1 receptor = molecular target: T5, Endothelin-1 receptor (Homo sapiens, UniProt P25101)
T5 sequence (P25101 whole entry): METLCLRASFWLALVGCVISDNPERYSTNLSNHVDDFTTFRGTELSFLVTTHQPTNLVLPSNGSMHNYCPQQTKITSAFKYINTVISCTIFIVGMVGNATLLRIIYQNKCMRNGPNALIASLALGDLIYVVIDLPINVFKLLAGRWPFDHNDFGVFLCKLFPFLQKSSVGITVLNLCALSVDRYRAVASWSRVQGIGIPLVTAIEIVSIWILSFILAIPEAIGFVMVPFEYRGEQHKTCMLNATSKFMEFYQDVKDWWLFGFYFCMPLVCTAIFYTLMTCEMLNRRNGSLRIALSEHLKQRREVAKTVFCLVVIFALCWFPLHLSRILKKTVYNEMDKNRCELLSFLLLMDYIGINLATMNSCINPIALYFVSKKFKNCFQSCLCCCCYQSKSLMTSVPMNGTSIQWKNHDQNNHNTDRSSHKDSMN

[5] = molecular target: T3, Alpha-1A adrenergic receptor; assay type: functional, cell-based; remark: listed apart in the source
[6] = molecular target: T6, 5-hydroxytryptamine receptor 1A (Homo sapiens, UniProt P08908); assay type: functional, cell-based
T6 sequence (P08908 whole entry): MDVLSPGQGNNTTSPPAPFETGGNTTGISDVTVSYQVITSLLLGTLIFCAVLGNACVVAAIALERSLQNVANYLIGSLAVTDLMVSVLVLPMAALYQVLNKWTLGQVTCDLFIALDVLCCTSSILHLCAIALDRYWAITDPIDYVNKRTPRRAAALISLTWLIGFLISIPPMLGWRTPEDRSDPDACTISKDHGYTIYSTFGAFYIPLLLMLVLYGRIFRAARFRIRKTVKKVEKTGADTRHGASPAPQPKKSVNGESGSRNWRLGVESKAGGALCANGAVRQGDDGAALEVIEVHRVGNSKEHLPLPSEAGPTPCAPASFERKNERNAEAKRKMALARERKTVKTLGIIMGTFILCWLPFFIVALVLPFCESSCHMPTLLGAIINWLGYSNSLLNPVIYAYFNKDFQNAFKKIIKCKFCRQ
Further: assay procedure not described here.

Sequence of Voltage-dependent L-type calcium channel subunit alpha-1C (P22002 whole entry): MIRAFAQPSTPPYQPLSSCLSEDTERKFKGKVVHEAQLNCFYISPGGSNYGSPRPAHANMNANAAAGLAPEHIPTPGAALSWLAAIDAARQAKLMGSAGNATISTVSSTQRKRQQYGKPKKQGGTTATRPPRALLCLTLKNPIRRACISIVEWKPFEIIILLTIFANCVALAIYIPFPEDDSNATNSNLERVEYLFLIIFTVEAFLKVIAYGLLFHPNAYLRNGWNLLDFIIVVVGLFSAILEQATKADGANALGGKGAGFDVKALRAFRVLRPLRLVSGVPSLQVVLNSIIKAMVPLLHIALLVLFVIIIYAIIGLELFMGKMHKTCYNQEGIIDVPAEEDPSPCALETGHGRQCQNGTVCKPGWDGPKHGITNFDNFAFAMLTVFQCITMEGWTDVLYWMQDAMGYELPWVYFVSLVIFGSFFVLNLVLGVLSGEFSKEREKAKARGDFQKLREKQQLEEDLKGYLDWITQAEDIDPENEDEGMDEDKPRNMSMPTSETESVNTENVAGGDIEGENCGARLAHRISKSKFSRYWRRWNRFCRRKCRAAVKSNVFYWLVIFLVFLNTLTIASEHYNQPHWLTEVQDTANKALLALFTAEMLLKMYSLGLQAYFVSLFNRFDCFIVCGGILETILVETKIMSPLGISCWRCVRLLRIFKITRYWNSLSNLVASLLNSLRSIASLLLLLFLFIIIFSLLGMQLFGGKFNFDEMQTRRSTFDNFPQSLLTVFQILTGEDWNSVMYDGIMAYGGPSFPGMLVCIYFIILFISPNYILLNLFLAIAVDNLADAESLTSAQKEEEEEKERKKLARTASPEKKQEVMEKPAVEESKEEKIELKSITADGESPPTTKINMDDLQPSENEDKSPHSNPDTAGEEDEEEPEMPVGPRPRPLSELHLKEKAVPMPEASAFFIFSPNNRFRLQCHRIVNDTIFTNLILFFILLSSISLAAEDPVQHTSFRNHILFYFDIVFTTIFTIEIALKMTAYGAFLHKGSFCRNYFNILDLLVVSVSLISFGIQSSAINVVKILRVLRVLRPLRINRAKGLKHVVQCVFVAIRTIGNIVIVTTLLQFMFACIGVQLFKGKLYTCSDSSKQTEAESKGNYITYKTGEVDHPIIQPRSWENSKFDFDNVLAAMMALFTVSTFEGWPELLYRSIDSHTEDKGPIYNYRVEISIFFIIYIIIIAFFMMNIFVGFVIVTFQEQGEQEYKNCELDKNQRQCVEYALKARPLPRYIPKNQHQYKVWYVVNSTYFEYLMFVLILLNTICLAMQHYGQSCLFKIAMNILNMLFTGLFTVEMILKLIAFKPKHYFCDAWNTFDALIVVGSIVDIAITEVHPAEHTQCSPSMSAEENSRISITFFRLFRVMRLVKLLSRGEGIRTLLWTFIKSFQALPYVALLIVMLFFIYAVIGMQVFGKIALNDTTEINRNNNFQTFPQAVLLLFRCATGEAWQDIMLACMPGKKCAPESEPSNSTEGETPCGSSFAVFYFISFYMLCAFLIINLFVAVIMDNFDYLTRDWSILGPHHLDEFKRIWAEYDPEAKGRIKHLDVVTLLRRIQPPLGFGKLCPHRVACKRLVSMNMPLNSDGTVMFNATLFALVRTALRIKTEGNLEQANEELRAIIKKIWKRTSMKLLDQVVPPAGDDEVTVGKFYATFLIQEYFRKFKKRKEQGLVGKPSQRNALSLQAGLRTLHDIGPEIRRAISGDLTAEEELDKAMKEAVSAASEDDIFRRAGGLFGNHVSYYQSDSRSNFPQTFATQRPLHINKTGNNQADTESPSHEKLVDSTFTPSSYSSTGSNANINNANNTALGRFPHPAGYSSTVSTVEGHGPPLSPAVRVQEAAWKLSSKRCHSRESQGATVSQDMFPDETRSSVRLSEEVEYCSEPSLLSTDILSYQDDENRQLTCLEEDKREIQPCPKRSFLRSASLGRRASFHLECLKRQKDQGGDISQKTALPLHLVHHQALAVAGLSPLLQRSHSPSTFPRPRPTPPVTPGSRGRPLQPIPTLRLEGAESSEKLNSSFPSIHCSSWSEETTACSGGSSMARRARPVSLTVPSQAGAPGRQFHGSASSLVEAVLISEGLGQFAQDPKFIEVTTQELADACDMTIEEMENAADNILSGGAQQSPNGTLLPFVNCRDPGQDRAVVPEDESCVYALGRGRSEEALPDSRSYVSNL
Sequence of Vasopressin V1a receptor (P37288 whole entry): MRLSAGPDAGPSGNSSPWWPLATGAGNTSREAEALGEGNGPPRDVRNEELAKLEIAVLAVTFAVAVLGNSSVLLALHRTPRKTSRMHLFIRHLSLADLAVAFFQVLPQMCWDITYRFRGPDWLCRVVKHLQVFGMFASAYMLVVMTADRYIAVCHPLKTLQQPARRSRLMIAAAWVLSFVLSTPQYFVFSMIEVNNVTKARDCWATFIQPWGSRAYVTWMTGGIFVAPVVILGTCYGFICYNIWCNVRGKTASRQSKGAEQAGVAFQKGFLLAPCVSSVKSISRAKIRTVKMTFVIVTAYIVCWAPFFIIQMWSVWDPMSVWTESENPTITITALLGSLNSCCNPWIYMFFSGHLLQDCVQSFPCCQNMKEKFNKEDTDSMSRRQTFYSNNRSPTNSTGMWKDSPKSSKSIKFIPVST

Row | SMILES | AC50 [1] [µM] | AC50 (Adenosine receptor A1) [µM] | AC50 [2] [µM] | AC50 (Vasopressin V1a receptor) [µM] | AC50 [3] [µM] | AC50 [4] [µM] | AC50 (Endothelin-1 receptor) [µM] | AC50 [5] [µM] | AC50 [6] [µM]
1 | CC(N)CCCC(C)(C)O (stereo not given) [HEPTAMINOL] | > 30 |  |  |  |  |  |  |  | 
2 | CC[N+](C)(CC)CCOC(=O)C1c2ccccc2Oc2ccccc21 [METHANTHELINE] | 0.0287 |  |  |  |  |  |  |  | 
3 | O=C(O)CSCC(=O)NC1CCSC1=O (stereo not given) [ERDOSTEINE] |  | > 30 | > 30 | > 30 | > 30 | > 30 | > 30 | > 30 | 
4 | CCC[C@@H]1C[C@@H](C(=O)N[C@@H]([C@H]2O[C@H](SC)[C@H](OP(=O)(O)O)[C@@H](O)[C@H]2O)[C@H](C)Cl)N(C)C1 [CLINDAMYCIN PHOSPHATE] | > 30 |  |  |  |  |  |  |  | 
5 | CNC(=O)Oc1ccc2c(c1)[C@]1(C)CCN(C)[C@@H]1N2C [PHYSOSTIGMINE] |  | > 30 | > 30 | > 30 | > 30 | > 30 | > 30 | > 30 | > 30
6 | C[C@@H]1CCC[C@H](C)N1NC(=O)c1ccc(Cl)c(S(N)(=O)=O)c1 [CLOPAMIDE] |  | > 30 | > 30 | > 30 | > 30 | > 30 | > 30 | > 30 | > 30
7 | O=[N+]([O-])O[C@H]1CO[C@H]2[C@@H]1OC[C@H]2O[N+](=O)[O-] [ISOSORBIDE DINITRATE] | > 30 |  |  |  |  |  |  |  | 
8 | COc1cccc(N(C)C(=S)Oc2ccc3c(c2)CCCC3)n1 [LIRANAFTATE] |  | > 30 | > 30 | > 30 | > 30 | > 30 | > 30 | > 30 | 
9 | CCCCC/C=C\C/C=C\C/C=C\CCCCC(=O)O [GAMOLENIC ACID] | > 30 |  |  |  |  |  |  |  | 
10 | CCCCCCCCCCCCCCCCCC(=O)NCCCC[C@H](NC(=O)CC[C@@H](NC(=O)[C@H](C)NC(=O)[C@@H](C)O[C@H]1[C@H](O)[C@@H](CO)OC(O)[C@@H]1NC(C)=O)C(N)=O)C(=O)O (stereo not given in full) [ROMURTIDE] | 6.71 |  |  |  |  |  |  |  | 
11 | O=C(CCCN1CCC2(CC1)C(=O)NCN2c1ccccc1)c1ccc(F)cc1 [SPIPERONE] |  | > 30 | 11.8 | > 30 |  |  | > 30 | 1.6 | 
12 | c1cc(CN2CCCNCCNCCCNCC2)ccc1CN1CCCNCCNCCCNCC1 [PLERIXAFOR] | > 30 |  |  |  |  |  |  |  | 
13 | NS(=O)(=O)c1cc(C(=O)O)cc(N2CCCC2)c1Oc1ccccc1 [PIRETANIDE] |  | > 30 |  | > 30 | > 30 | > 30 | > 30 |  | > 30
14 | O=C1c2c(O)cccc2Cc2cccc(O)c21 [ANTHRALIN] | > 30 |  |  |  |  |  |  |  | 
15 | O=C(O)c1cc(O)c2c3nc4ccccc4oc-3cc(=O)c2n1 [PIRENOXINE] |  | > 30 | > 30 | > 30 | 0.72 | > 30 | > 30 | > 30 | > 30
16 | N=C(N)c1ccc2cc(OC(=O)c3ccc(N=C(N)N)cc3)ccc2c1 [NAFAMOSTAT] |  | > 30 | > 30 | > 30 | > 30 | > 30 | > 30 | 15 | 
17 | CCSc1ccc2c(c1)N(CCCN1CCN(C)CC1)c1ccccc1S2 [THIETHYLPERAZINE] |  |  | > 30 |  |  | > 30 |  | 1.6 | 
18 | CN(C)C(=O)Oc1cc(OC(=O)N(C)C)cc(C(O)CNC(C)(C)C)c1 (stereo not given) [BAMBUTEROL] |  | > 30 |  | > 30 |  |  | > 30 |  | 
